Results: patent US20240307327A1, “DOSAGE FORMS OF MIRDAMETINIB” (SpringWorks Therapeutics, Inc., priority 2023, published 2024)

Experiment: Particle size distribution of mirdametinib drug substance lots (laser diffraction)
Format: physicochemical
Conditions: mirdametinib free base
Text: As used herein, “D50” or “d50”, also known as the median diameter, corresponds to the value under which 50% of the particles has a lower volume diameter. “D90” or “d90” corresponds to the value under which 90% of the particles has a lower volume diameter. The particle size may be measured using wet standard laser diffraction particle sizing techniques known in the art. One example of an instrument to measure the particle size of the dry powders is the Mastersizer 3000, manufactured by Malvern Panalytical Ltd. (Malvern, UK). As particles are often non-spherical, it is difficult and complex to provide dimensional descriptions of these non-spherical particles. As used herein, “volume diameter” refers to diameter of a sphere with equal volume of the non-spherical particle.
Mirdametinib free base (Lots #1, 2, and 3) having the properties in the table below were prepared.

SMILES | D10
O=C(NOC[C@H](O)CO)c1ccc(F)c(F)c1Nc1ccc(I)cc1F [Lot 1, N-((R)-2,3-dihydroxypropoxy)-3,4-difluoro-2-(2-fluoro-4-iodo-phenylamino)benzamide] | 4.9 μm
O=C(NOC[C@H](O)CO)c1ccc(F)c(F)c1Nc1ccc(I)cc1F [Lot 2, N-((R)-2,3-dihydroxypropoxy)-3,4-difluoro-2-(2-fluoro-4-iodo-phenylamino)benzamide] | 7.6 μm
